This assay has as its system K98450-129-R-PDC complex spheroid growth, percent test/control. Description: Anticancer human tumor K98450-129-R-PDC patient-derived colon adenocarcinoma cell line growth inhibition [RAS]. The settings on record: for viability, T/C: stronger effect = lower value. In short, it runs like this: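 Tumour cells grown as complex spheroids with HUVEC endothelial cells and mesenchymal stem cells, treated with RAS pathway inhibitor combinations. Each agent spans half-log steps from near clinical Cmax, or 10 microM where Cmax is unknown.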

This passage reports IC50 and viability, T/C results from PubChem BioAssay AID2060891 (Molecular Pharmacology Branch, DTP, NCI, 2025).

“And” between values parts separate entries of the source, which are not always exact repeats. Equal values may be shown once. Where only a bound is given, the exact number is not on record here.
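Also: spheroids exposed to agents for seven days before the viability readout.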
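For viability, T/C in this document: luminescence used as a proxy for viable cell amount.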

As for `Nc1ccn(C2OC(CO)C(O)C2(F)F)c(=O)n1` (stereo not drawn) + CCn1c(-c2cc(N3CCN(C)CC3)cnc2C(C)OC)c2c3cc(ccc31)-c1csc(n1)CC(NC(=O)C1CC1C)C(=O)N1CCCC(N1)C(=O)OCC(C)(C)C2, the IC50 (in general, the concentration that inhibits the measured activity by half) is 254 nM (curve of first compound, second compound 0.000949 µM); 133 nM (curve of first compound, second compound 0.003 µM); 26.4 nM (curve of first compound, second compound 0.00949 µM); below 3.16 nM (curve of first compound, second compound 0.03 µM); below 3.16 nM (curve of first compound, second compound 0.0949 µM); below 3.16 nM (curve of first compound, second compound 0.3 µM). For the same molecule, the viability, T/C (usually the ratio of treated to control) runs as follows: (second compound 0.000949 µM, first compound 0.00316 µM) 93.1%; (second compound 0.000949 µM, first compound 0.01 µM) 82.9%; (second compound 0.000949 µM, first compound 0.0316 µM) 80.5%; (second compound 0.000949 µM, first compound 0.1 µM) 56.4%; (second compound 0.000949 µM, first compound 0.316 µM) 50.5%; (second compound 0.000949 µM, first compound 1 µM) 37.6%. For the same molecule, the viability, T/C is 98.1% (second compound 0.003 µM, first compound 0.00316 µM); 80.1% (second compound 0.003 µM, first compound 0.01 µM); 62.3% (second compound 0.003 µM, first compound 0.0316 µM); 52.8% (second compound 0.003 µM, first compound 0.1 µM); 44.4% (second compound 0.003 µM, first compound 0.316 µM); 37.3% (second compound 0.003 µM, first compound 1 µM). For the same molecule, the viability, T/C was 77% (second compound 0.00949 µM, first compound 0.00316 µM); 62.2% (second compound 0.00949 µM, first compound 0.01 µM); 49.2% (second compound 0.00949 µM, first compound 0.0316 µM); 33.2% (second compound 0.00949 µM, first compound 0.1 µM); 30% (second compound 0.00949 µM, first compound 0.316 µM); 23.8% (second compound 0.00949 µM, first compound 1 µM). The viability, T/C is 43.4% (second compound 0.03 µM, first compound 0.00316 µM); 45.9% (second compound 0.03 µM, first compound 0.01 µM); 33.5% (second compound 0.03 µM, first compound 0.0316 µM); 23.1% (second compound 0.03 µM, first compound 0.1 µM); 20.7% (second compound 0.03 µM, first compound 0.316 µM); 15.2% (second compound 0.03 µM, first compound 1 µM). Further, the viability, T/C runs as follows: (second compound 0.0949 µM, first compound 0.00316 µM) 21.1%; (second compound 0.0949 µM, first compound 0.01 µM) 21.4%; (second compound 0.0949 µM, first compound 0.0316 µM) 14.4%; (second compound 0.0949 µM, first compound 0.1 µM) 11.9%; (second compound 0.0949 µM, first compound 0.316 µM) 14.8%; (second compound 0.0949 µM, first compound 1 µM) 11.5%. Moreover, the viability, T/C runs as follows: (second compound 0.3 µM, first compound 0.00316 µM) 9.67%; (second compound 0.3 µM, first compound 0.01 µM) 13.7%; (second compound 0.3 µM, first compound 0.0316 µM) 12.9%; (second compound 0.3 µM, first compound 0.1 µM) 11.4%; (second compound 0.3 µM, first compound 0.316 µM) 10.9%; (second compound 0.3 µM, first compound 1 µM) 9.09%.

As to `C=CC(=O)Nc1cc(Nc2nccc(-c3cn(C)c4ccccc34)n2)c(OC)cc1N(C)CCN(C)C`, the viability, T/C was 102% (2×) and 95.4% and 104% (compound 0.00316 µM); 96.2% [middle of 4 runs] (compound 0.01 µM); 100% [middle of 4 runs] (compound 0.1 µM); 70.7% [middle of 4 runs] (compound 0.316 µM); 36% [middle of 4 runs] (compound 1 µM). In addition, under “curve of compound”, the half-maximal inhibitory concentration (IC50) was 633 nM [middle of 4 runs].
